Experimental data published in ChEMBL document CHEMBL4138247, “Synthesis of new triterpenic monomers and dimers as potential antiproliferative agents and their molecular docking studies” (Eur J Med Chem, 2018).

Legend:
Assay type in all cases: functional, cell-based
[1] = test system: FaDu; assay: Antiproliferative activity against human FADU cells after 96 hrs by SRB assay
[2] = test system: A2780; assay: Antiproliferative activity against human A2780 cells after 96 hrs by SRB assay; conditions: A2780, 96 h
[3] = test system: HT-29; assay: Antiproliferative activity against human HT-29 cells after 96 hrs by SRB assay; conditions: HT-29, 96 h
[4] = test system: A-375; assay: Antiproliferative activity against human A375 cells after 96 hrs by SRB assay; conditions: A-375, 96 h

SMILES	IC50 [1] [µM]	IC50 [2] [µM]	IC50 [3] [µM]	IC50 [4] [µM]
C/C(=C\CC/C(C)=C/CC[C@@H]1[C@@]2(C)CCC(=O)C(C)(C)[C@@H]2CC[C@@]1(C)O)CC/C=C(\C)C(=O)OCCCCOC(=O)/C(C)=C/CC/C(C)=C/CC/C(C)=C/CC[C@@H]1[C@@]2(C)CC[C@H](O)C(C)(C)[C@@H]2CC[C@@]1(C)O	28.2	16.1	8.2	10.6
C/C(=C\CC/C(C)=C/CC[C@@H]1[C@@]2(C)CCC(=O)C(C)(C)[C@@H]2CC[C@@]1(C)O)CC/C=C(\C)C(=O)OCCCCBr	> 30	21.6	14.6	14.5
C/C(=C\CC/C(C)=C/CC[C@@H]1[C@@]2(C)CCC(=O)C(C)(C)[C@@H]2CC[C@@]1(C)O)CC/C=C(\C)C(=O)OCCOC(=O)[C@@]1(C)[C@H](O)CC[C@@]2(C)[C@H]1CC[C@]1(C)[C@@H]2C(=O)C=C2[C@@H]3[C@@H](C)[C@H](C)CC[C@]3(C)CC[C@]21C	> 30	> 30	> 30	> 30
C=C(C)[C@@H]1CC[C@]2(C)CC[C@]3(C)[C@H](CC[C@@H]4[C@@]5(C)CC[C@@H](O)[C@](C)(C(=O)OCCCBr)[C@@H]5CC[C@]43C)[C@@H]12	27.1	26.9	24.5	16.7
C/C(=C\CC/C(C)=C/CC[C@@H]1[C@@]2(C)CCC(=O)C(C)(C)[C@@H]2CC[C@@]1(C)O)CC/C=C(\C)C(=O)OCCCBr	> 30	18.1	8.1	11.8
C/C(=C\CC/C(C)=C/CC[C@@H]1[C@@]2(C)CCC(=O)C(C)(C)[C@@H]2CC[C@@]1(C)O)CC/C=C(\C)C(=O)OCCCCOC(=O)[C@@]1(C)[C@H](O)CC[C@@]2(C)[C@H]1CC[C@]1(C)[C@@H]2C(=O)C=C2[C@@H]3[C@@H](C)[C@H](C)CC[C@]3(C)CC[C@]21C	> 30	> 30	> 30	> 30
C=C(C)[C@@H]1CC[C@]2(C)CC[C@]3(C)[C@H](CC[C@@H]4[C@@]5(C)CC[C@@H](O)[C@](C)(C(=O)OCCCCBr)[C@@H]5CC[C@]43C)[C@@H]12	> 30	> 30	> 30	18
C=C(C)[C@@H]1CC[C@]2(C)CC[C@]3(C)[C@H](CC[C@@H]4[C@@]5(C)CC[C@@H](O)[C@](C)(C(=O)OCCBr)[C@@H]5CC[C@]43C)[C@@H]12	26.4	29	23	17.4
C/C(=C\CC/C(C)=C/CC[C@@H]1[C@@]2(C)CCC(=O)C(C)(C)[C@@H]2CC[C@@]1(C)O)CC/C=C(\C)C(=O)OCCOC(=O)/C(C)=C/CC/C(C)=C/CC/C(C)=C/CC[C@@H]1[C@@]2(C)CCC(=O)C(C)(C)[C@@H]2CC[C@@]1(C)O	> 30	> 30	14	24.5
C=C(C)[C@@H]1CC[C@]2(C(=O)OCCCCOC(=O)/C(C)=C/CC/C(C)=C/CC/C(C)=C/CC[C@@H]3[C@@]4(C)CCC(=O)C(C)(C)[C@@H]4CC[C@@]3(C)O)CC[C@]3(C)[C@H](CC[C@@H]4[C@@]5(C)CC[C@H](O)C(C)(C)[C@@H]5CC[C@]43C)[C@@H]12	> 30	> 30	> 30	> 30
C/C(=C\CC/C(C)=C/CC[C@@H]1[C@@]2(C)CCC(=O)C(C)(C)[C@@H]2CC[C@@]1(C)O)CC/C=C(\C)C(=O)OCCCOC(=O)/C(C)=C/CC/C(C)=C/CC/C(C)=C/CC[C@@H]1[C@@]2(C)CC[C@@H](O)C(C)(C)[C@@H]2CC[C@@]1(C)O	25.1	14.8	6.8	11.1
C/C(=C\CC/C(C)=C/CC[C@@H]1[C@@]2(C)CCC(=O)C(C)(C)[C@@H]2CC[C@@]1(C)O)CC/C=C(\C)C(=O)OCCBr	> 30	> 30	> 30	> 30
C/C(=C\CC/C(C)=C/CC[C@@H]1[C@@]2(C)CCC(=O)C(C)(C)[C@@H]2CC[C@@]1(C)O)CC/C=C(\C)C(=O)OCCOC(=O)/C(C)=C/CC/C(C)=C/CC/C(C)=C/CC[C@@H]1[C@@]2(C)CC[C@@H](O)C(C)(C)[C@@H]2CC[C@@]1(C)O	> 30	20.7	10	15.5
C/C(=C\CC/C(C)=C/CC[C@@H]1[C@@]2(C)CCC(=O)C(C)(C)[C@@H]2CC[C@@]1(C)O)CC/C=C(\C)C(=O)OCCCOC(=O)[C@@]1(C)[C@H](O)CC[C@@]2(C)[C@H]1CC[C@]1(C)[C@@H]2C(=O)C=C2[C@@H]3[C@@H](C)[C@H](C)CC[C@]3(C)CC[C@]21C	> 30	> 30	> 30	> 30
C/C(=C\CC/C(C)=C/CC[C@@H]1[C@@]2(C)CCC(=O)C(C)(C)[C@@H]2CC[C@@]1(C)O)CC/C=C(\C)C(=O)OCCCOC(=O)/C(C)=C/CC/C(C)=C/CC/C(C)=C/CC[C@@H]1[C@@]2(C)CCC(=O)C(C)(C)[C@@H]2CC[C@@]1(C)O	> 30	16	5.4	10.4
C/C(=C\CC/C(C)=C/CC[C@@H]1[C@@]2(C)CCC(=O)C(C)(C)[C@@H]2CC[C@@]1(C)O)CC/C=C(\C)C(=O)OCCCCOC(=O)/C(C)=C/CC/C(C)=C/CC/C(C)=C/CC[C@@H]1[C@@]2(C)CCC(=O)C(C)(C)[C@@H]2CC[C@@]1(C)O	> 30	24.2	8.8	12.4
